{"source": "patent US20240216410A1", "about": "“METHODS AND COMPOSITIONS FOR TREATING CANCER THERAPY-INDUCED NEUTROPENIC FEVER AND/OR GVHD” (BOARD OF REGENTS, THE UNIVERSITY OF TEXAS SYSTEM, priority 2021, published 2024)", "key": {"[1]": {"assay_type": "in vivo, mice", "experimental": "The mucus layer provides a critical contribution to the intestinal barrier by excluding bacteria from the intestinal lumen adjacent to the intestinal epithelium. […] Translocating bacteria included Enterococcus faecalis, Enterococcus gallinarum, Lactobacillus johnsonii, and BT (FIGS. 17D-17E).\nImmunostaining and fluorescence in situ hybridization. […] Paraffin-embedded sections were dewaxed and hydrated. Sections were incubated with 1 μg Alexa Fluor 594-conjugated EUB338 (5′-[…]-3′; SEQ ID NO:1) for detection of all bacteria in 200 μL of hybridization buffer (750 mM NaCl, 100 mM Tris-HCl (pH 7.4), 5 mM EDTA, 0.01% BSA, 10% dextran sulfate) at 40° C. for 16 hours. Sections were rinsed in wash buffer (50 mM NaCl, 4 mM Tris-HCl (pH 7.4), 0.02 mM EDTA), washed at 45° ° C. for 20 min, stained with anti-Muc2 antibody [C3] (GTX100664, GeneTex) and counterstained with DAPI (Vector Laboratories). Photographs of sections were obtained using a fluorescent microscope (Nikon NIS Elements, Advanced Research version 4.20).\nMicrobiologic analysis of bacterial translocation. Mesenteric lymph nodes (MLNs) were harvested from mice and homogenized in PBS and cultured anaerobically on BHI plates containing yeast extract and 5% sterilized rumen fluid (THERMO FISHER […]™)) and Columbia blood agar plates (BD) for 4 days at 37° ° C. Colony-forming units (CFUs) were counted and adjusted per organ. […]"}, "intestinal microbiome": {"system": "intestinal microbiome", "experiment": "allo-HSCT patients who underwent intestinal microbiome profiling (meropenem-treated vs untreated)", "assay_type": "in vivo, human", "experimental": "Next, the effects of meropenem on the composition of the colonic microbiota of transplanted patients and mice were investigated. Fecal specimens were collected from HSCT patients transplanted from 2014 to 2019 and 44 patients were identified who were treated with allo-HSCT following conditioning with fludarabine and busulfan.\nFecal samples collected at baseline following hospital admission around day −7 as well as on day 14 following allo-HSCT were examined (FIG. 15A). […] A paired differential abundance analysis was then performed, asking which bacterial genera were the most changed from baseline in the two subgroups of patients.\nRetrospective study design.\n(§1) Sequencing of 16S rRNA gene amplicons. Fecal samples from patients and mice were weighed before DNA isolation. In brief, genomic DNA was isolated using the QIAAMP® DNA mini kit (51306, QIAGEN®) according to the manufacturer's protocol that was modified to include an intensive bead-beating lysis step. The V4 region of 16S rRNA gene was amplified by PCR from 100 ng of each of extracted and purified genomic DNA using 515 forward and 806 reverse primer pairs (59). The quality and quantity of the barcoded amplicons were assessed on an Agilent 4200 TapeStation system (Agilent) and QUBIT™ Fluorometer (THERMO FISHER […]™), and libraries were prepared after pooling at equimolar ratios. The final libraries were purified using […]® gel extraction kit (28706X4, QIAGEN®) and sequenced with a 2×250 base pair paired-end protocol on the […]® MISEQ™ platform.\n(§2) Microbiome data analysis. Sequencing data from paired-end reads were de-multiplexed using QIIME 2 (60). Merging of paired-end reads, dereplicating, and length filtering was performed using VSEARCH 2.17.1 (61). Following de-noising and chimera calling using the unoise3 command (62), unique sequences were taxonomically classified with mothur (63) using the Silva database (64) version 138. Weighted UniFrac distances (65) were determined using QIIME 2, visualized using principal coordinate analysis, and evaluated for statistical significance using permutational multivariate analysis of variance (PERMANOVA) testing. For differential abundance analysis, abundances of sequences belonging to taxonomical groups were included for analysis using the Mann-Whitney U test and adjusted for multiple comparisons using the method of Benjamini and Hochberg. Paired samples were analyzed using the Wilcoxon signed rank test with adjustment for multiple comparisons."}, "[2]": {"experiment": "Meropenem concentration in stool of mice given meropenem in drinking water", "assay_type": "in vivo", "conditions": "mouse, oral; 0.625 g/L in drinking water; normal SPF mice; stool 48 hours after starting; median±SE; read-out: meropenem concentration in fecal samples", "experimental": "To further explore a potential causal relationship between meropenem and intestinal GVHD, the effects of meropenem on GVHD in a mouse model of allo-HSCT were examined. A method of administering meropenem to mice was first developed that would better mimic the effects of meropenem on the intestinal microbiome of patients, which is typically given every 8 hours intravenously. Previously, antibiotics were administered subcutaneously to mice (25), and meropenem concentrations were quantified in the cecal lumen of mice 4, 8, 24, 48 and 96 hours after subcutaneous injection. […] Next, drinking water was evaluated as a means of continuously administering meropenem to mice, using bacterial density quantified by 16S ribosomal RNA (16S rRNA) gene quantitative PCR (qPCR) to gauge reductions of the intestinal microbiota.\nMurine isolates of Enterococcus faecalis (MDA-JAX EF001), Clostridium disporicum (MDA-JAX CD001), Clostridium saudiense (MDA-JAX CS001), and Lachnospiraceae unclassified (MDA-JAX LS001) were also tested.\nAntibiotics administration."}, "intestinal microbiota": {"system": "intestinal microbiota", "experiment": "Murine GVHD model: fecal microbiome composition (16S rRNA sequencing) and bacterial density (qPCR)", "assay_type": "in vivo, mice", "experimental": "Effects of meropenem treatment on the composition of the intestinal microbiota of allo-HSCT mice were also examined (FIG. 15F).\nas §1, §2\nQuantification of fecal bacterial density. Genomic DNA was isolated from stool as described above. qPCR was performed as previously described (66). In brief, 16S rRNA gene sequences were amplified from total fecal DNA using the primers 926F (5′-[…]-3′, where K is a G or a T; SEQ ID NO:2) and 1062R (5′-[…]-3′, where R is an A or a G; SEQ ID NO:3). Real-time PCR were carried out in 96-well optical plates on QUANTSTUDIO™ Flex 6 RT PCR (APPLIED BIOSYSTEMS™) and KAPA SYBR® FAST Master Mix (Roche). The PCR conditions included one initial denaturing step of 10 min at 95° C. and 40 cycles of 95° C. for 20 sec and 60 °C for 1 min. Melting-curve analysis was performed after amplification. To determined bacterial density, a plasmid with a 16S rRNA gene of a murine Blautia isolate was generated in the pCR4 backbone and used as a standard."}, "[3]": {"conditions": "44 microbiome-profiled patients, meropenem days −10 to 14"}}, "note": "Entries after “also recorded” stand apart in the source; their conditions may differ.", "data": [{"molecule": "C[C@@H](O)[C@H]1C(=O)N2C(C(=O)O)=C(S[C@@H]3CN[C@H](C(=O)N(C)C)C3)[C@H](C)[C@H]12", "note": "[meropenem]", "values": [{"measurement": "bacterial loads cultivated from MLNs", "setting": "[1]; day 18", "result": "higher bacterial loads"}, {"measurement": "bacteria in mucus layer and lamina propria (16S FISH)", "setting": "[1]; mice with GVHD", "result": "dissemination of bacteria into the mucus layer and lamina propria of the colon"}, {"measurement": "survival after allo-HSCT", "setting": "meropenem in drinking water days 3 to 15 vs control allo-HSCT mice", "result": "significantly worsened survival"}, {"measurement": "GVHD histological scores in the colon", "setting": "mouse, in vivo", "result": "significantly higher"}, {"measurement": "GVHD histology in the small intestine and liver", "setting": "mouse, in vivo", "result": "not substantially different"}, {"measurement": "epithelial damage in the colon (H&E)", "setting": "mouse, in vivo", "result": "severe epithelial damage in the colon"}, {"measurement": "Acute GVHD Grade 0, number of patients", "setting": "intestinal microbiome; [3]", "result": 7}, {"measurement": "Acute GVHD Grade 0, percentage of patients", "setting": "intestinal microbiome; [3]", "result": "(38%)"}, {"measurement": "Acute GVHD Grade I, number of patients", "setting": "intestinal microbiome; [3]", "result": 0}, {"measurement": "Acute GVHD Grade I, percentage of patients", "setting": "intestinal microbiome; [3]", "result": "(0%)"}, {"measurement": "Acute GVHD Grade II, number of patients", "setting": "intestinal microbiome; [3]", "result": 7}, {"measurement": "Acute GVHD Grade II, percentage of patients", "setting": "intestinal microbiome; [3]", "result": "(38%)"}, {"measurement": "Acute GVHD Grade III-IV, number of patients", "setting": "intestinal microbiome; [3]", "result": 4}, {"measurement": "Acute GVHD Grade III-IV, percentage of patients", "setting": "intestinal microbiome; [3]", "result": "(22%)"}, {"measurement": "bacterial genera most changed from baseline (paired differential abundance)", "setting": "intestinal microbiome; fecal samples pre-HSCT vs day 14", "result": "significant expansion of bacteria from the genus Bacteroides"}, {"measurement": "concentration at 48 h", "setting": "[2]", "result": "110 ± 70", "unit": "ng/g"}, {"measurement": "abundance of murine BT", "setting": "intestinal microbiota; allo-HSCT mice, days 0, 7, 14, 21", "result": "suppressed by meropenem-supplemented drinking water but quickly expanded after cessation of meropenem therapy; also recorded: higher abundances of BT"}, {"measurement": "abundance of Clostridia", "setting": "intestinal microbiota; allogeneic mice, days 0, 7, 14, 21", "result": "significantly decreased; also recorded: depleted"}, {"measurement": "fecal bacterial density", "setting": "intestinal microbiota; day 14 after allo-HSCT, during meropenem treatment", "result": "significantly decreased bacterial density"}, {"measurement": "fecal bacterial density", "setting": "intestinal microbiota; day 21, 6 days after stopping meropenem", "result": "recovered to a level similar to that of untreated syngeneic and allogeneic mice"}, {"measurement": "alpha diversity (inverse Simpson index)", "setting": "intestinal microbiota; fecal samples day 21", "result": "significantly reduced"}, {"measurement": "bacterial genera depleted", "setting": "intestinal microbiota; fecal samples day 21", "result": "many genera were depleted, including Blautia, Lachnoclostridium, and other members of Lachnospiraceae"}, {"measurement": "bacterial genera with increased abundance", "setting": "intestinal microbiota; fecal samples day 21", "result": "significantly higher abundances of bacteria from several genera, including most substantially Bacteroides, as well as Enterococcus, Erysipelatoclostridium, Bifidobacterium and Akkermansia"}]}]}
